Experimental findings from patent US20190134039A1, “ANTIVIRAL JAK INHIBITORS USEFUL IN TREATING OR PREVENTING RETROVIRAL AND OTHER VIRAL INFECTIONS” (EMORY UNIVERSITY, priority 2011, published 2019) are described below.

What all share (type): cell-based
Test [1] has as its system HIV-1 containing 4xAZT (D67N/K70R/T215Y/K219Q). Briefly: microbe, parasite or virus in culture. The following applies: for FI50 (ratio of EC50 against mutant virus:EC50 against wild-type xxLAI) / FI90 (ratio of EC90 against mutant virus:EC90 against wild-type xxLAI): 4xAZT (D67N/K70R/T215Y/K219Q); for EC50 / EC90: Human immunodeficiency virus 1, Lymphocyte.
Test [2] deals with HIV-1 containing A62V/V75I/F77L/F116Y/Q151M. Briefly: microbe, parasite or virus in culture. The following applies: for FI50 (ratio of EC50 against mutant virus:EC50 against wild-type xxLAI) / FI90 (ratio of EC90 against mutant virus:EC90 against wild-type xxLAI): A62V/V75I/F77L/F116Y/Q151M; for EC50 / EC90: Human immunodeficiency virus 1, Lymphocyte.
The next test deals with HIV-1 containing L74V. Briefly: microbe, parasite or virus in culture. The following applies: for EC50 / EC90: Human immunodeficiency virus 1, Lymphocyte; for FI50 (ratio of EC50 against mutant virus:EC50 against wild-type xxLAI) / FI90 (ratio of EC90 against mutant virus:EC90 against wild-type xxLAI): L74V.
In another test the test system is HIV-1 containing K65R. Briefly: microbe, parasite or virus in culture. The following applies: for EC50 / EC90: Human immunodeficiency virus 1, Lymphocyte; for FI50 (ratio of EC50 against mutant virus:EC50 against wild-type xxLAI) / FI90 (ratio of EC90 against mutant virus:EC90 against wild-type xxLAI): K65R.
The next test has as its system HIV-1 containing M184V. Briefly: microbe, parasite or virus in culture. The conditions noted are these: for EC50 / EC90: Human immunodeficiency virus 1, Lymphocyte; for FI50 (ratio of EC50 against mutant virus:EC50 against wild-type xxLAI) / FI90 (ratio of EC90 against mutant virus:EC90 against wild-type xxLAI): M184V.
The next test deals with wild-type HIV-1xxLAI. The experiment in a line: Antiviral potency in primary human lymphocytes, wild type. The conditions noted are these: Human immunodeficiency virus 1, Lymphocyte, xxLAI, primary human lymphocytes; for EC50: read-out: EC50; for EC90: read-out: EC90.

The structures appear in SMILES notation. Counter-ions that a name gives are not always drawn.

In the case of `Nc1ccn([C@@H]2CS[C@H](CO)O2)c(=O)n1` [Compound 3TC, (−)-cis-2-hydroxymethyl-5-(cytosin-1-yl)-1,3-oxathiolane], the “FI50 (ratio of EC50 against mutant virus:EC50 against wild-type xxLAI)” value in test [1] was found to be 0.9; in test [2] it was 0.6; in the test with HIV-1 containing L74V it was 0.7; with HIV-1 containing K65R it was 3.3; with HIV-1 containing M184V it was 13.3. For the same compound, the “FI90 (ratio of EC90 against mutant virus:EC90 against wild-type xxLAI)” value in test [1] was determined as 1.1; in test [2], 0.9; in the test on HIV-1 containing L74V, 0.9; in the test with HIV-1 containing K65R, 1.9; in the test with HIV-1 containing M184V, 3.2. In addition, the EC50 in test [1] was 0.7 ± 0.8 µM; in test [2], 0.5 ± 0.7 µM; with HIV-1 containing L74V it was 0.6 ± 0.8 µM; in the test on HIV-1 containing K65R, 2.5 ± 3 µM; in the test on HIV-1 containing M184V, greater than 10 µM; with wild-type HIV-1xxLAI it was 0.8 ± 0.4 µM. Also, the EC90 in test [1] is 3.4 ± 1.1 µM; in test [2] it was 2.7 ± 1.7 µM; in the test on HIV-1 containing L74V, 2.9 ± 2.9 µM; in the test on HIV-1 containing K65R it was 6 ± 5.3 µM; in the test on HIV-1 containing M184V it was greater than 10 µM; in the test on wild-type HIV-1xxLAI, 3.1 ± 1.2 µM.
For the compound `Nc1nc(=O)n([C@@H]2CS[C@H](CO)O2)cc1F` (relative stereo) [(−)FTC, cis-2-hydroxymethyl-5-(5-fluorocytosin-1-yl)-1,3-oxathiolane], the “FI50 (ratio of EC50 against mutant virus:EC50 against wild-type xxLAI)” value in test [1] came to 2; in test [2], 4.2; in the test on HIV-1 containing L74V, 2; with HIV-1 containing K65R, 5.5; in the test on HIV-1 containing M184V, 117. Moreover, the “FI90 (ratio of EC90 against mutant virus:EC90 against wild-type xxLAI)” value in test [1] turned out to be 1.4; in test [2], 2.5; in the test with HIV-1 containing L74V it was 1.6; in the test on HIV-1 containing K65R, 2.9; in the test on HIV-1 containing M184V, 50. The EC50 in test [1] was 0.2 ± 0.1 µM; in test [2] it was 0.4 ± 0.3 µM; with HIV-1 containing L74V, 0.2 ± 0.2 µM; in the test on HIV-1 containing K65R it was 0.5 ± 0.4 µM; in the test on HIV-1 containing M184V it was 10.1 ± 7.3 µM; with wild-type HIV-1xxLAI, 0.09 ± 0.02 µM. Moreover, the EC90 in test [1] worked out at 1.2 ± 0.1 µM; in test [2] it was 2.1 ± 1.6 µM; with HIV-1 containing L74V it was 1.3 ± 1 µM; with HIV-1 containing K65R, 2.4 ± 1.4 µM; in the test with HIV-1 containing M184V it was 41.3 ± 29.3 µM; in the test with wild-type HIV-1xxLAI, 0.8 ± 0.4 µM.
Take `CC(C)OC(=O)OCOP(=O)(CO[C@H](C)Cn1cnc2c(N)ncnc21)OCOC(=O)OC(C)C` [TDF, Tenofovir disoproxil fumarate]: the “FI50 (ratio of EC50 against mutant virus:EC50 against wild-type xxLAI)” value is 1.3 in test [1]; 3.9 in test [2]; 1.4 with HIV-1 containing L74V; 2.2 in the test with HIV-1 containing K65R; 0.6 in the test on HIV-1 containing M184V. Besides, the “FI90 (ratio of EC90 against mutant virus:EC90 against wild-type xxLAI)” value in test [1] is 1.3; in test [2] it was 3.9; in the test with HIV-1 containing L74V, 1.2; in the test on HIV-1 containing K65R, 1.7; with HIV-1 containing M184V, 0.6. In addition, the EC50 in test [1] came to 0.07 ± 0.04 µM; in test [2] it was 0.7 ± 0.8 µM; with HIV-1 containing K65R, 0.4 ± 0.1 µM; in the test on HIV-1 containing M184V, 0.09 ± 0.03 µM; in the test on wild-type HIV-1xxLAI it was 0.2 ± 0.2 µM. For the same compound, the EC90 worked out at 1.2 ± 1.1 µM in test [1]; 3.6 ± 2.2 µM in test [2]; 0.2 ± 0.1 µM in the test with HIV-1 containing L74V; 1.6 ± 0.5 µM in the test on HIV-1 containing K65R; 0.5 ± 0.3 µM in the test on HIV-1 containing M184V; 0.9 ± 0.8 µM in the test on wild-type HIV-1xxLAI.
